“Also recorded” adds a separate entry of the source.
Columns and labels:
HEK293 cells = assay: Cell death / viability, PrestoBlue HS (resazurin) assay, HEK293; assay type: cell-based; conditions: FIG. 6 Panel C
Protocol: (§1) Note that the higher concentrations lead to a reduction in activation of the reporter consistent with the “hook effect” characteristic of bifunctional molecules as they saturate both binding sites.(PMID: 8752278; PMID:21406691), in this case the BCL6 protein and the estrogen receptor. […] Panel C. […] Viability was measured using the PrestoBlue HS (resazurin) assay for viable cells (1:10 ratio in media and 1 h incubation).
(§2) These reporter systems and direct measures of cancer cell killing were used to assess the TF-CIP molecules made by rational design that are illustrated in FIG. 4. As shown in Panel A, addition of ER-TF-CIP6 activates GFP expression by the BCL reporter with an EC50 of about 1 to 10 micromolar. […] Note that the higher concentrations lead to a reduction in activation of the reporter consistent with the “hook effect” characteristic of bifunctional molecules as they saturate both binding sites. (PMID: 8752278; PMID:21406691), in this case the BCL6 protein and the estrogen receptor. […] Viability was measured using the PrestoBlue HS (resazurin) assay for viable cells (1:10 ratio in media and 1 h incubation).

Karpas 422 = assay: Cell death / viability, PrestoBlue HS (resazurin) assay, Karpas 422; assay type: cell-based; conditions: FIG. 6 Panel B, ER-positive cells with amplified/rearranged BCL6, compared with BI3812
Protocol: as §1, §2

BCL6 reporter = BCL6 reporter GFP activation; assay type: cell-based, human; conditions: FIG. 6 Panel A
Text: FIGS. 5A to 5C illustrate the development of reporters for activation of cell death or pro-apoptotic pathways by the disinhibited BCL6 protein or the pro-apoptotic protein FOXO3A. FIG. 5A: The BCL6 reporter consists of an array of BCL6 binding sites taken from different pro-apoptotic genes including TP53, PUMA, BIM and others. These genes have the ability to kill cells when simply overexpressed (PMID:11463391). Ten base pairs on either side of the actual human BCL6 binding site are included to take advantage of the fact that transcriptional specificity is due to the concerted binding of proteins in an enhanceosome (PMID:9510247, 18206362).
as §1
FIGS. 5A to 5C provide examples of how one measures the effect of a TF-CIP to allow chemical optimization of linker and ligands. […] Thus, the reporter system is multiplexed and useful for defining and quantitating apoptotic responses in many different cell types. […]

[1] = system: ER-negative breast cancer cell lines; assay: Cell death / viability, PrestoBlue HS (resazurin) assay, ER-negative breast cancer cell lines; assay type: cell-based; conditions: FIG. 6 Panels D and E; two ER-negative or low-ER breast cancer cell lines
Protocol: as §1, §2

CNC(=O)COc1cc2cc(Nc3nc(N4CCC(C(=O)NCCOCCOCCNC(=O)CO/N=C5\CCC6C7CCc8cc(O)ccc8C7CC[C@]56C)CC4)ncc3Cl)cc(OC)c2n(C)c1=O (stereo partly drawn) [ER-TF-CIP6]
induction of cell death (HEK293 cells): induces cell death
induction of cell death (Karpas 422): more effectively than B13812
induction of cell death (Karpas 422; listed as ER-TFCIP6): more effectively than BI3812
potency in BCL6 reporter relative to BI3812 (BCL6 reporter; comparison with parent compound BI3812): substantially lower concentration than that of the parent compound
EC50 (BCL6 reporter; Homo sapiens, read-out: EC50 of activation of GFP expression by the BCL reporter): 1 to 10 µM
cell killing [1]: does not kill; also recorded: are not killed

— patent publication US20230304024A1, “Modulation of Gene Expression Via Transcription Factor-Chemically Induced Proximity (TF-CIP)” (The Board of Trustees of the Leland Stanford Junior …, priority 2020, published 2023)
